Assay results as given in patent publication EP4332093A1, “SALT CONTAINING PIPERAZINE POLYCYCLIC DERIVATIVE, CRYSTAL FORM THEREOF, PREPARATION METHOD THEREFOR, AND USE THEREOF” (Shanghai Hansoh Biomedical Co., Ltd., priority 2021, dated 2022).
Each block holds one compound with its values, some of them ahead of it.

What was measured:
[1] = biological target: T1, dopamine D3 receptor (Homo sapiens, UniProt P35462); test: Radioligand binding assay, dopamine D3 receptor ([3H]-methylspiperone); settings: Human Dopamine D3 Receptor membrane, [3H]-methylspiperone 0.5 nM
T1 construct: purchased PerkinElmer ES-173-M400UA
Protocol: Determination of the binding ability of the compounds of the present invention to dopamine D3 receptor
The objective of this test example is to determine the affinity of the compounds for dopamine D3 receptor.
Experimental buffer: 50 mM Tris-HCl pH 7.4, 10 mm MgCl2; washing liquor: 50 mM Tris-HCl pH 7.4, stored at 4°C; 0.5% PEI solution: 0.5 g PEI dissolved in 100 mL ddH2O, 4°C storage of spare.
(§1) 5 µL of the test compounds (0.005 nM to 100 nM, 10 concentrations in total) and 100 µL of buffer were added to a 96-well assay plate. 1 µL of cell membrane and 300 µL of buffer were added to each well, and the plate was shaken at 600 rpm for 5 minutes. 100 µL of a mixed solution of buffer and [^3H]-methylspiperone (final concentration of 0.5 nM) was added to the reaction system per well, and the plate was shaken at 600 rpm for 5 minutes and incubated at 27°C for 30 min. The UNIFII,TER-96 GF/B filter plate pre-incubated with 0.5% PEI for 1 h was washed twice with the buffer (1 mL/well). The cell membrane suspension was added to the […]-96 GF/B filter plate, washed 4 times, and incubated at 55°C for 10 min. 40 µL of ULTIMA GOLD was added to each well, and liquid scintillation counting was carried out.
(§2) The CPM (Counts per minute) values were determined by TopCount. […] The 10 concentrations of the compound were from 100 nM to 0.005 nM after 3-fold dilution of the reaction system. The percent inhibition rate and ten-point concentration data were fitted to the parametric nonlinear logistic equation by using GraphPad prism to calculate the IC50 values of the compound.

[2] = biological target: T2, D3 receptor (Homo sapiens, UniProt P35462); test: cAMP content in cells stably expressing D3 receptors (CHO-D3, forskolin, HTRF); assay type: cell-based
T2 construct: expressed in transfected cells

[3] = biological target: T3, 5-HT2A receptor (Homo sapiens, UniProt P28223); test: Radioligand binding assay, 5-HT2A receptor ([3H]-Ketanserin); design: purchased PerkinElmer; settings: Human 5-HT2A Receptor membrane, [3H]-Ketanserin 2 nM; read-out: 5HT-2A Binding IC50
Protocol: Determination of the binding ability of the compounds of the
present invention to 5-HT2A receptor
The objective of this test example is to determine the affinity of the compounds for 5-HT2A receptor.
Experimental buffer: 50 mM Tris-HCl pH 7.4, 4 mM CaCl2; washing liquor: 50 mM Tris-HCl pH 7.4, stored at 4°C; 0.5% PEI solution: 0.5 g PEI dissolved in 100 mL ddH2O, 4°C storage of spare.
as §1, with “plate. 1.5” for “plate. 1”, “and [^3H]-Ketanserin” for “and [^3H]-methylspiperone”, “of 2” for “of 0.5”, “The […]-96” for “The UNIFII,TER-96”
as §2

[4] = biological target: T3, 5-HT2A receptor; test: Calcium ion mobility in cells stably expressing 5-HT2A receptors (Flp-In-CHO-5HT2A, FLIPR); assay type: cell-based; design: expressed in transfected cells; settings: Flp-In-CHO-5HT2A stable pool, 5HT stimulation
[5] = Stability study of salt (light, high temperature, high humidity; 5 and 10 days; HPLC related substances); assay type: physicochemical
From the text: The chromatographic peak area normalization method was used to calculate the changes of related substances. [table]

[6] = Hygroscopicity study of salt (DVS); assay type: physicochemical; settings: 25°C, 0-95-0% RH
From the text: The hygroscopicity of a drug refers to the characteristics of the drug's ability or degree of water absorption at a certain temperature and humidity. […] (DVS) was used to characterize the ability of drugs to absorb water under different humidity conditions. The instrument parameters are detailed in the table below. [table]

[7] = Solubility of hydrochloride and free base in different media (37°C, 24 hours, HPLC); assay type: physicochemical; settings: for solubility at 24 h: thermodynamic from solid
Protocol: The glass bottle was shaken overnight on an electrothermal constant temperature shaking tank, and the temperature was set to 37°C. After 24 hours, the sample solution was filtered with a 0.45 µm mixed water fiber filter membrane, and the subsequent filtrate was taken to test its content by HPLC. HPLC detection methods are described in "Stability Study Conditions". Table 24 Solubility of hydrochloride and free base in different pH buffers

[8] = Salt form quantification (HPLC-ELSD); assay type: physicochemical; settings: HPLC-ELSD, external standard method
Protocol: The number of acids binding in the salt form was quantified by HPLC-ELSD test. An appropriate amount of NaCl was weighed, and a series of linear solutions of different concentrations with the diluent acetonitrile-water (50:50) was prepared. […] The above linear solution and hydrochloride samples solution was taken to filter. [table]

[9] = Crystal form stability study of hydrochloride for 30 days; assay type: physicochemical; settings: HPLC peak area normalization
Protocol: The diluent 80% methanol solution was added to prepare a solution containing about 0.5 mg/mL hydrochloride. The mixture was sonicated for 30min to produce a clear solution. 1mL of the soluion was filtered and measured by HPLC. See "2.3.4" for the HPLC analysis method. The content of related substances was calculated according to the peak area normalization method, and the results are shown in Table 32 below. Table 32 HPLC data of hydrochloride in stability experimental conditions for 30 days

T1 sequence (P35462 whole entry): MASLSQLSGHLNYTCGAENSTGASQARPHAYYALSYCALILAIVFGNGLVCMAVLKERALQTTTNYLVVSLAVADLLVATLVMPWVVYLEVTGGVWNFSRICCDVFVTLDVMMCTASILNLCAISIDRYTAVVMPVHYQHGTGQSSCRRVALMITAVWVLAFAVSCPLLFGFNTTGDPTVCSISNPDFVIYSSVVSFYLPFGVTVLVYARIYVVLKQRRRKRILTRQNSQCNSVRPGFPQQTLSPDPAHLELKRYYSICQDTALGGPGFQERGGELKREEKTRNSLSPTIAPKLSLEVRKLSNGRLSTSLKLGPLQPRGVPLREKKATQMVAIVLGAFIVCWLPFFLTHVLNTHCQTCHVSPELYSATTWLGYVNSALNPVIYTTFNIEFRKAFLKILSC
T2 sequence (P35462 whole entry): as above
T3 sequence (P28223 whole entry): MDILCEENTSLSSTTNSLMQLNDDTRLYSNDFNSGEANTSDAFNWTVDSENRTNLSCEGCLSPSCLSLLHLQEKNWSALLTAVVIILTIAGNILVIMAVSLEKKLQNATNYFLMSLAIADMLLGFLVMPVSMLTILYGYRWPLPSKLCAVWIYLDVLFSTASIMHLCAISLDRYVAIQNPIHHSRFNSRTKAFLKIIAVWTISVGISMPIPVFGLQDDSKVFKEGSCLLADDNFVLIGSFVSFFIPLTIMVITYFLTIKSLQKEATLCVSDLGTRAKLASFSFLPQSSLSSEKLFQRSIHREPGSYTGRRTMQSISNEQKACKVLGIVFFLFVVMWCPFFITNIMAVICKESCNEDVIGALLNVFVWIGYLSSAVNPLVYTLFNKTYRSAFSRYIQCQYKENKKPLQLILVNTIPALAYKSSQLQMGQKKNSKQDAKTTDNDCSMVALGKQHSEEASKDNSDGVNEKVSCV

Structure (SMILES): Cc1nc(C(=O)N[C@H]2C[C@H](CCN3CCN(c4cccc(Cl)c4Cl)CC3)C2)co1 [Example 18A, N-(Trans-3-(2-(4-(2,3-dichlorophenyl)piperazin-1-yl)ethyl)cyclobutyl)-2-methyloxazole-4-carboxamide]
IC50 [1]: 0.42 nM | EC50 [2]: 1.4 nM | IC50 [3]: 1.37 nM | IC50 [4]: 6.44 nM

Structure (SMILES): Cl.O=C(N[C@H]1C[C@H](CCN2CCN(c3cccc(Cl)c3Cl)CC2)C1)c1ncco1 [hydrochloride]
stability (growth of impurities) [5]: good stability | hygroscopicity (DVS) [6]: slightly hygroscopic | solubility in different pH buffers [7]: pH-dependent, with better solubility under acidic conditions, poor solubility under neutral or alkaline conditions | solubility at 24 h ([7]; aqueous buffer, Buffer pH 3): > 1000 µg/mL | solubility at 24 h ([7]; aqueous buffer, Buffer pH 4): > 1000 µg/mL | solubility at 24 h ([7]; aqueous buffer, Buffer pH 5): 863 µg/mL | solubility at 24 h ([7]; aqueous buffer, Buffer pH 6): 187 µg/mL | solubility at 24 h ([7]; aqueous buffer, Buffer pH 7): 14 µg/mL | solubility at 24 h ([7]; aqueous buffer, Buffer pH 8): 1 µg/mL | solubility at 24 h ([7]; fassgf or other biorelevant, FaSSCoF): > 1000 µg/mL | solubility at 24 h ([7]; fassgf or other biorelevant, FaSSGF): 117 µg/mL | solubility at 24 h ([7]; fassgf or other biorelevant, FeSSCoF): > 1000 µg/mL | solubility at 24 h ([7]; simulated gastric fluid, Buffer pH 1): > 1000 µg/mL | solubility at 24 h ([7]; simulated gastric fluid, Buffer pH 2): > 1000 µg/mL | solubility at 24 h ([7]; FaSSIF): > 1000 µg/mL | solubility at 24 h ([7]; FeSSIF): > 1000 µg/mL | solubility in water compared with free base ([7]; water): greatly improved | solubility at 24 h ([7]; water, H2O): > 1000 µg/mL | Determination of Cl-percentage content in hydrochloride ([8]; Batch 1): 7.82% | Determination of Cl-percentage content in hydrochloride ([8]; Batch 2): 7.90% | Area% at RRT 1.00 ([9]; 0d): 99.44% | Area% at RRT 1.07 ([9]; 0d): 0.07% | Area% at RRT 1.93 ([9]; 0d): 0.42% | Area% at RRT 2.43 ([9]; 0d): 0.07% | Area% at RRT 1.00 ([9]; GS-30d): 99.43% | Area% at RRT 1.07 ([9]; GS-30d): 0.11% | Area% at RRT 1.93 ([9]; GS-30d): 0.39% | Area% at RRT 2.43 ([9]; GS-30d): 0.07% | Area% at RRT 1.00 ([9]; GW-30d): 99.51% | Area% at RRT 1.07 ([9]; GW-30d): 0.08% | Area% at RRT 1.93 ([9]; GW-30d): 0.41% | Area% at RRT 1.00 ([9]; GZ-30d): 99.43% | Area% at RRT 1.07 ([9]; GZ-30d): 0.09% | Area% at RRT 1.93 ([9]; GZ-30d): 0.41% | Area% at RRT 2.43 ([9]; GZ-30d): 0.08% | Area% at RRT 1.00 ([9]; WS-30d): 99.46% | Area% at RRT 1.07 ([9]; WS-30d): 0.09% | Area% at RRT 1.93 ([9]; WS-30d): 0.38% | Area% at RRT 2.43 ([9]; WS-30d): 0.07%

Structure (SMILES): Cc1cnoc1C(=O)N[C@H]1C[C@H](CCN2CCN(c3cccc(Cl)c3Cl)CC2)C1 [Example 13A, N-(Trans-3-(2-(4-(2,3-dichlorophenyl)piperazin-1-yl)ethyl)cyclobutyl)-4-methylisox azole-5-carboxamide]
IC50 [1]: 1.36 nM | EC50 [2]: 1.1 nM | IC50 [3]: 1.81 nM | IC50 [4]: 11.7 nM

IC50 [1]: 1.99 nM | EC50 [2]: 1 nM | IC50 [3]: 19.1 nM | IC50 [4]: 11.6 nM
Structure (SMILES): CN(C(=O)NC1CC(CCN2CCN(c3cccc(Cl)c3Cl)CC2)C1)C1CC1 (stereo not shown) [Example 20, 1-Cyclopropyl-3-(3-(2-(4-(2,3-dichlorophenyl)piperazin-1-yl)ethyl)cyclobutyl)-1-me thylurea]

IC50 [1]: 0.95 nM | EC50 [2]: 0.4 nM | IC50 [3]: 41.5 nM | IC50 [4]: 39 nM
Structure (SMILES): CC(C)(O)C(=O)NC1CC(CCN2CCN(c3cccc(Cl)c3Cl)CC2)C1 (stereo not shown) [Example 4A]
